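Test compounds were applied to cells in 96-well plates for 48 hours at 5 doses. GI50 is the concentration that inhibits growth by half. TGI: concentration producing complete growth inhibition.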

Experiment in all cases: NCI anticancer screen, dose series, 48 h
For assay [1], the system named is A549 NSCLC.
In assay [2] the test system is UACC-62 melanoma.
For assay [3], the system named is OVCAR-8 ovarian.
Assay [4] relates to HT29 colon.
Assay [5] has as its system NCI-H226 lung.
The test system of assay [6] is HL-60(TB) leukemia.
The test system of assay [7] is NCI-H460 lung.
For assay [8], the system named is SK-MEL-28 melanoma.
The test system of assay [9] is SF-539 CNS.
The test system of assay [10] is RPMI-8226 leukemia.

For the compound `O=C(CC1(O)C(=O)Nc2ccc(Br)cc21)c1ccc(Cl)cc1Cl` (stereo not given), the TGI in [1] was > 100 µM; in [2], 33.7 µM; in assay [3] it was > 100 µM; in [4], > 100 µM; in assay [5], > 100 µM; in [6] it was 48.3 µM. Also, the TGI in [7] is > 100 µM; in assay [8], > 100 µM; in assay [9], > 100 µM; in [10] it was 50.7 µM.
With `O=[N+]([O-])c1ccc(Oc2nc(Nc3ccc(O[C@H]4CO[C@H]5[C@@H]4OC[C@@H]5O)c(Cl)c3)ncc2F)c(Cl)c1`, the GI50 in assay [1] is 1.86 µM; in assay [2], 0.843 µM; in assay [3] it was 1.21 µM; in assay [4] it was 2.43 µM; in [5] it was 0.73 µM; in assay [6], 1.53 µM. Moreover, the GI50 in assay [7] is 0.853 µM; in assay [8] it was 1.55 µM; in assay [9], 1.55 µM; in assay [10], 0.61 µM. Also, the TGI is 6.15 µM in assay [1]; 2.27 µM in assay [2]; > 100 µM in assay [3]; 11.7 µM in assay [4]; 2.5 µM in [5]; 4.11 µM in assay [6]. The TGI in assay [7] worked out at 2.98 µM; in [8], 4.78 µM; in assay [9] it was 3.86 µM; in assay [10] it was 2.56 µM.
Take `O=[N+]([O-])c1ccc(Cl)c(C2CC(c3cccc4ccccc34)=Nc3ccccc3S2)c1` (stereo not given): the TGI in assay [1] is > 100 µM; in assay [2] it was 59 µM; in assay [3] it was 30.8 µM; in assay [4] it was > 59.7 µM; in [5], > 67.1 µM; in assay [6] it was 26.2 µM. For the same compound, the TGI was > 100 µM in [7], > 84.2 µM in [8], 49.3 µM in assay [9] and > 47.5 µM in assay [10].
Regarding `COc1cccc(/C=N/NC(=S)NC2CC3CCC2C3)c1O` (stereo not given), the GI50 was 4 µM in assay [1]; 10.8 µM in [2]; 5.2 µM in [3]; 30.1 µM in assay [4]; 2.38 µM in assay [5]; 16.6 µM in assay [6]. In addition, the GI50 was 2.47 µM in [7], 13.1 µM in assay [8], 10.8 µM in [9] and 11.1 µM in assay [10]. Also, the TGI in [1] is 15.9 µM; in assay [2], 50.1 µM; in assay [3] it was 18.5 µM; in assay [4] it was 91.4 µM; in [5], 10.9 µM; in [6], 60.3 µM. Moreover, the TGI in assay [7] stood at 8.43 µM; in [8], 33.5 µM; in assay [9], 29.3 µM; in [10] it was 49.7 µM.

The values are drawn from PubChem BioAssay (NCI).
